Data from ChEMBL document CHEMBL3297661, “1-Substituted-5-[(3,5-dinitrobenzyl)sulfanyl]-1H-tetrazoles and their isosteric analogs: A new class of selective antitubercular agents active against drug-susceptible and multidrug-resistant mycobacteria” (Eur J Med Chem, 2014).
pIC50: −log10 of the molar value. Values after ≈ are worked out from the molar mass of the structure shown.

Columns and labels:
Pseudomonas aeruginosa [1] = assay: Antibacterial activity against Pseudomonas aeruginosa ATCC 9027 after 48 hrs by broth microdilution method; assay type: functional; settings: ATCC 9027, 48 h
Candida albicans [2] = assay: Antifungal activity against Candida albicans ATCC 44859 after 24 hrs by broth microdilution method; assay type: functional; settings: ATCC 44859, 24 h
Candida albicans [3] = assay: Antifungal activity against Candida albicans ATCC 44859 after 48 hrs by broth microdilution method; assay type: functional; settings: ATCC 44859, 48 h
Candida tropicalis [4] = assay: Antifungal activity against Candida tropicalis 156 after 24 hrs by broth microdilution method; assay type: functional; settings: Candida tropicalis, 156, 24 h
Candida tropicalis [5] = assay: Antifungal activity against Candida tropicalis 156 after 48 hrs by broth microdilution method; assay type: functional; settings: Candida tropicalis, 156, 48 h
Pichia kudriavzevii [6] = assay: Antifungal activity against Candida krusei E28 after 24 hrs by broth microdilution method; assay type: functional; settings: E28, 24 h
Pichia kudriavzevii [7] = assay: Antifungal activity against Candida krusei E28 after 48 hrs by broth microdilution method; assay type: functional; settings: E28, 48 h
Nakaseomyces glabratus [8] = assay: Antifungal activity against Candida glabrata 20/I after 24 hrs by broth microdilution method; assay type: functional
Nakaseomyces glabratus [9] = assay: Antifungal activity against Candida glabrata 20/I after 48 hrs by broth microdilution method; assay type: functional
Trichosporon asahii [10] = assay: Antifungal activity against Trichosporon asahii 1188 after 24 hrs by broth microdilution method; assay type: functional; settings: Trichosporon asahii, 1188, 24 h
Trichosporon asahii [11] = assay: Antifungal activity against Trichosporon asahii 1188 after 48 hrs by broth microdilution method; assay type: functional; settings: Trichosporon asahii, 1188, 48 h
Aspergillus fumigatus [12] = assay: Antifungal activity against Aspergillus fumigatus 231 after 24 hrs by broth microdilution method; assay type: functional, organism-based; settings: Aspergillus fumigatus, 231, 24 h
Aspergillus fumigatus [13] = assay: Antifungal activity against Aspergillus fumigatus 231 after 48 hrs by broth microdilution method; assay type: functional, organism-based; settings: Aspergillus fumigatus, 231, 48 h
Lichtheimia corymbifera [14] = assay: Antifungal activity against Absidia corymbifera 272 after 24 hrs by broth microdilution method; assay type: functional, organism-based; settings: Lichtheimia corymbifera, 272, 24 h
Lichtheimia corymbifera [15] = assay: Antifungal activity against Absidia corymbifera 272 after 48 hrs by broth microdilution method; assay type: functional, organism-based; settings: Lichtheimia corymbifera, 272, 48 h
[16] = test system: Trichophyton mentagrophytes; assay: Antifungal activity against Trichophyton mentagrophytes 445 after 72 hrs by broth microdilution method; assay type: functional, organism-based; settings: Trichophyton mentagrophytes, 445, 72 h
[17] = test system: Trichophyton mentagrophytes; assay: Antifungal activity against Trichophyton mentagrophytes 445 after 120 hrs by broth microdilution method; assay type: functional, organism-based; settings: Trichophyton mentagrophytes, 445, 120 h
[18] = test system: Mycobacterium tuberculosis; assay: Antimycobacterial activity against Mycobacterium tuberculosis CNCTC My 331/88 after 14 days by micromethod; assay type: functional; settings: CNCTC My 331/88, 336 h
[19] = test system: Mycobacterium tuberculosis; assay: Antimycobacterial activity against Mycobacterium tuberculosis CNCTC My 331/88 after 21 days by micromethod; assay type: functional; settings: CNCTC My 331/88, 504 h
Mycobacterium avium [20] = assay: Antimycobacterial activity against Mycobacterium avium CNCTC My 330/88 after 14 days by micromethod; assay type: functional; settings: CNCTC My 330/88, 336 h
Mycobacterium avium [21] = assay: Antimycobacterial activity against Mycobacterium avium CNCTC My 330/88 after 21 days by micromethod; assay type: functional; settings: CNCTC My 330/88, 504 h
Mycobacterium kansasii [22] = assay: Antimycobacterial activity against Mycobacterium kansasii CNCTC My 235/80 after 7 days by micromethod; assay type: functional; settings: CNCTC My 235/80, 168 h
Mycobacterium kansasii [23] = assay: Antimycobacterial activity against Mycobacterium kansasii CNCTC My 235/80 after 14 days by micromethod; assay type: functional; settings: CNCTC My 235/80, 336 h
Mycobacterium kansasii [24] = assay: Antimycobacterial activity against Mycobacterium kansasii CNCTC My 235/80 after 21 days by micromethod; assay type: functional; settings: CNCTC My 235/80, 504 h
Mycobacterium kansasii [25] = assay: Antimycobacterial activity against Mycobacterium kansasii 6509/96 after 7 days by micromethod; assay type: functional; settings: 6509/96, 168 h
Mycobacterium kansasii [26] = assay: Antimycobacterial activity against Mycobacterium kansasii 6509/96 after 14 days by micromethod; assay type: functional; settings: 6509/96, 336 h
Mycobacterium kansasii [27] = assay: Antimycobacterial activity against Mycobacterium kansasii 6509/96 after 21 days by micromethod; assay type: functional; settings: 6509/96, 504 h
Staphylococcus aureus [28] = assay: Antibacterial activity against Staphylococcus aureus ATCC 6538 after 24 hrs by broth microdilution method; assay type: functional; settings: ATCC 6538, 24 h
Staphylococcus aureus [29] = assay: Antibacterial activity against Staphylococcus aureus ATCC 6538 after 48 hrs by broth microdilution method; assay type: functional; settings: ATCC 6538, 48 h
Staphylococcus aureus [30] = assay: Antibacterial activity against methicillin-resistant Staphylococcus aureus H 5996/08 after 24 hrs by broth microdilution method; assay type: functional; settings: H 5996/08, 24 h
Staphylococcus aureus [31] = assay: Antibacterial activity against methicillin-resistant Staphylococcus aureus H 5996/08 after 48 hrs by broth microdilution method; assay type: functional; settings: H 5996/08, 48 h
[32] = test system: Staphylococcus epidermidis; assay: Antibacterial activity against Staphylococcus epidermidis H 6966/08 after 24 hrs by broth microdilution method; assay type: functional; settings: H 6966/08, 24 h
[33] = test system: Staphylococcus epidermidis; assay: Antibacterial activity against Staphylococcus epidermidis H 6966/08 after 48 hrs by broth microdilution method; assay type: functional; settings: H 6966/08, 48 h
Enterococcus faecalis [34] = assay: Antibacterial activity against Enterococcus faecalis J 14365/08 after 24 hrs by broth microdilution method; assay type: functional; settings: J 14365/08, 24 h
Enterococcus faecalis [35] = assay: Antibacterial activity against Enterococcus faecalis J 14365/08 after 48 hrs by broth microdilution method; assay type: functional; settings: J 14365/08, 48 h
Escherichia coli [36] = assay: Antibacterial activity against Escherichia coli ATCC 8739 after 24 hrs by broth microdilution method; assay type: functional; settings: ATCC 8739, ATCC 8739, 24 h
Escherichia coli [37] = assay: Antibacterial activity against Escherichia coli ATCC 8739 after 48 hrs by broth microdilution method; assay type: functional; settings: ATCC 8739, ATCC 8739, 48 h
Klebsiella pneumoniae [38] = assay: Antibacterial activity against Klebsiella pneumoniae D 11750/08 after 24 hrs by broth microdilution method; assay type: functional; settings: D 11750/08, 24 h
Klebsiella pneumoniae [39] = assay: Antibacterial activity against Klebsiella pneumoniae D 11750/08 after 48 hrs by broth microdilution method; assay type: functional; settings: D 11750/08, 48 h
Klebsiella pneumoniae [40] = assay: Antibacterial activity against extended spectrum beta-lactamase producing Klebsiella pneumoniae J 14368/08 after 24 hrs by broth microdilution method; assay type: functional; settings: J 14368/08, 24 h
Klebsiella pneumoniae [41] = assay: Antibacterial activity against extended spectrum beta-lactamase producing Klebsiella pneumoniae J 14368/08 after 48 hrs by broth microdilution method; assay type: functional; settings: J 14368/08, 48 h
Pseudomonas aeruginosa [42] = assay: Antibacterial activity against Pseudomonas aeruginosa ATCC 9027 after 24 hrs by broth microdilution method; assay type: functional; settings: ATCC 9027, 24 h

With `O=C(O)c1cccc(-n2nnnc2SCc2cc([N+](=O)[O-])cc([N+](=O)[O-])c2)c1` as the compound, how does the IC95 (Pseudomonas aeruginosa [1]) read?
The IC95 was > 500 µM.

And the IC80 (Candida albicans [2])?
The IC80 was > 500 µM.

What about the IC80 (Candida albicans [3]) of the same compound?
The IC80 was > 500 µM.

And the IC80 (Candida tropicalis [4])?
Its IC80 is > 500 µM.

What about the IC80 (Candida tropicalis [5]) of the same compound?
Its IC80 is > 500 µM.

And the IC80 (Pichia kudriavzevii [6])?
Its IC80 is > 500 µM.

And the IC80 (Pichia kudriavzevii [7])?
The IC80 was > 500 µM.

And the IC80 (Nakaseomyces glabratus [8])?
The IC80 was > 500 µM.

And the IC80 (Nakaseomyces glabratus [9])?
The IC80 was > 500 µM.

And the IC80 (Trichosporon asahii [10])?
The IC80 was > 500 µM.

And the IC80 (Trichosporon asahii [11])?
Its IC80 is > 500 µM.

What about the pIC50 (Aspergillus fumigatus [12]) of the same compound?
The pIC50 was < 3.30.

And the pIC50 (Aspergillus fumigatus [13])?
The pIC50 was < 3.30.

And the pIC50 (Lichtheimia corymbifera [14])?
The pIC50 was < 3.30.

What about the pIC50 (Lichtheimia corymbifera [15]) of the same compound?
Its pIC50 is < 3.30.

And the pIC50 [16]?
Its pIC50 is < 3.30.

And the pIC50 [17]?
The pIC50 was < 3.30.

What about the MIC [18] of the same compound?
Its MIC is 1000 µM (≈ 402 µg/mL).

What about the MIC [19] of the same compound?
Its MIC is 1000 µM (≈ 402 µg/mL).

What about the MIC (Mycobacterium avium [20]) of the same compound?
Its MIC is 1000 µM (≈ 402 µg/mL).

What about the MIC (Mycobacterium avium [21]) of the same compound?
Its MIC is 1000 µM (≈ 402 µg/mL).

And the MIC (Mycobacterium kansasii [22])?
The MIC was 500 µM (≈ 201 µg/mL).

What about the MIC (Mycobacterium kansasii [23]) of the same compound?
Its MIC is 1000 µM (≈ 402 µg/mL).

What about the MIC (Mycobacterium kansasii [24]) of the same compound?
Its MIC is 1000 µM (≈ 402 µg/mL).

What about the MIC (Mycobacterium kansasii [25]) of the same compound?
Its MIC is 1000 µM (≈ 402 µg/mL).

What about the MIC (Mycobacterium kansasii [26]) of the same compound?
Its MIC is 1000 µM (≈ 402 µg/mL).

And the MIC (Mycobacterium kansasii [27])?
Its MIC is 1000 µM (≈ 402 µg/mL).

And the IC95 (Staphylococcus aureus [28])?
The IC95 was > 500 µM.

And the IC95 (Staphylococcus aureus [29])?
The IC95 was > 500 µM.

What about the IC95 (Staphylococcus aureus [30]) of the same compound?
Its IC95 is > 500 µM.

And the IC95 (Staphylococcus aureus [31])?
Its IC95 is > 500 µM.

And the IC95 [32]?
The IC95 was 500 µM.

And the IC95 [33]?
The IC95 was > 500 µM.

And the IC95 (Enterococcus faecalis [34])?
Its IC95 is > 500 µM.

What about the IC95 (Enterococcus faecalis [35]) of the same compound?
The IC95 was > 500 µM.

And the IC95 (Escherichia coli [36])?
Its IC95 is > 500 µM.

What about the IC95 (Escherichia coli [37]) of the same compound?
The IC95 was > 500 µM.

And the IC95 (Klebsiella pneumoniae [38])?
Its IC95 is > 500 µM.

What about the IC95 (Klebsiella pneumoniae [39]) of the same compound?
The IC95 was > 500 µM.

What about the IC95 (Klebsiella pneumoniae [40]) of the same compound?
Its IC95 is > 500 µM.

What about the IC95 (Klebsiella pneumoniae [41]) of the same compound?
The IC95 was > 500 µM.

What about the IC95 (Pseudomonas aeruginosa [42]) of the same compound?
The IC95 was > 500 µM.
